Common to all, as to assay type: cell-based, Zoysia japonica Steud.
In experiment [1] the test system is mature seeds of zoysiagrass. As to the kind of experiment: Callus induction from mature seeds on MS media with growth hormone combinations. The note with it: 2,4-dichlorophenoxyacetic acid 0 mg/L, MS, 3 months. The protocol: Seeds of zoysiagrass (Zoysia japonica Steud.), from which seed coats were first removed, were sterilized by soaking in 70% ethyl alcohol for 1 min and subsequently in 5% sodium hypochlorite solution supplemented with 0.001% (v/v) Tween 20 for 15 min. The sterilized seeds were then thoroughly rinsed with sterilized distilled water 3-4 times. They were then germinated and grown for 2 weeks on the N6 media (pH 5.8) containing 1 mg/L 2,4-dichlorophenoxyacetic acid, 3% sucrose, and 0.2% gelite and subject to callus induction. The callus induction and growth was carried out in a controlled environment culture room set at 26° C. and 70% humidity in the dark.
To examine the effects of plant growth hormones on the callus induction efficiency and the callus morphology, sterilized seeds were placed and cultured on the MS plates supplemented with 4 mg/L thiamine-HCl and 100 mg/L α-ketoglutaric acid. The MS plates, each with a diameter of 9 cm, were further supplemented with various amounts of 2,4-dichlorophenoxyacetic acid (0, 1, 2, 4, 8 mg/L) and 6-benzylaminopurine (0, 0.02, 0.2, 2, 4 mg/L). One hundred seeds were grown per each MS plate, and 3 plates were used for each treatment group. After three months, the number of seeds from which calli had been induced was counted. For the morphological classification of calli, calli were induced and grown on the MS media supplemented with 6-benzylaminopurine and 2,4-dichlorophenoxyacetic acid under the identical condition as described above for three months. They could be morphologically classified into four distinct groups (I-IV), based on the callus morphology, color, and rigidity.
To investigate the effects of plant growth hormones on the callus induction, the mature seed-derived callus induction rates were measured on the MS media supplemented with different amounts of 2,4-dichlorophenoxyacetic acid and 6-benzylaminopurine after grown for three months.
Seeds were plated and grown on the MS media containing 4 mg/L thiamine-HCl, 100 mg/L α-ketoglutaric acid, and different concentration combinations of 2,4-dichlorophenoxyacetic acid and 6-benzylaminopurine for 3 months.

The test system of experiment [2] is Type I calli derived from mature seeds of zoysiagrass. As to the kind of experiment: Effects of cytokinins on shoot induction from callus. The note with it: Type I calli, MS with 30 g/L maltose, 2 weeks. Here is the method:
The media were additionally supplemented with 1 or 4 mg/L of kinetin, 6-benzylaminopurine, or TDZ. Each treatment consisted of 3 MS plates, each with 16 calli.

Experiment [3] shares this test system. Described as above. The note with it: 44 Type I calli tested, MS with 30 g/L maltose, 2 weeks.

Data on one molecule can be found in patent US6489166B1, “Plant regeneration method for mature seed-derived callus in zoysiagrass” (Korea Kumho Petrochemical Co., Ltd., priority 2001, dated 2002).

As for `c1ccc(CNc2ncnc3nc[nH]c23)cc1` [6-benzylaminopurine], the “Callus producing seeds (%)” value in experiment [1] (6-benzylaminopurine 0.02 mg/L), in experiment [1] (6-benzylaminopurine 0.2 mg/L), in experiment [1] (6-benzylaminopurine 2 mg/L) and in experiment [1] (6-benzylaminopurine 4 mg/L) was 0 (0) % each time. Also, the “Number of callus producing seeds” value in experiment [1] (6-benzylaminopurine 0.02 mg/L), in experiment [1] (6-benzylaminopurine 0.2 mg/L), in experiment [1] (6-benzylaminopurine 2 mg/L) and in experiment [1] (6-benzylaminopurine 4 mg/L) was 0 (0) in each case. Besides, the “Number of shoots over 5 mm” value turned out to be 19 in experiment [2] (growth regulator 1 mg/L) and 1 in experiment [2] (growth regulator 4 mg/L). Further, the “Number of shoots per callus lump” value in experiment [2] (growth regulator 1 mg/L) is 5.2; in experiment [2] (growth regulator 4 mg/L), 3.7. Moreover, the figures for the “Number of calli with shoots” value in experiment [3] (growth regulator 1 mg/L) and in experiment [3] (growth regulator 4 mg/L) were 17 and 9, respectively.
